Measurements as given in paper PMC3133487 (Journal of Antimicrobial Chemotherapy, 2011).
Values after ≈ are worked out from the molar mass of the structure shown. Values joined by “and” are separate entries in the source; they are usually repeats but may differ in a detail not shown here. Equal values may be shown once.

Experiments:
M. smegmatis mc^2155 = assay: microbe, parasite or virus in culture; type: cell-based, Mycobacterium smegmatis; settings: Mycolicibacterium smegmatis, MC^2155, 72 h, read-out: MIC M. smegmatis mc^2155
M. fortuitum = assay: Microdilution MIC assay in cation-adjusted Mueller–Hinton broth; type: cell-based, Mycobacterium fortuitum; settings: Mycolicibacterium fortuitum, read-out: MIC M. fortuitum
M. phlei = assay: as above; type: cell-based, Mycobacterium phlei; settings: Mycolicibacterium phlei, read-out: MIC M. phlei
M. tuberculosis MurE [1] = target: T1, M. tuberculosis MurE (Mycobacterium tuberculosis, UniProt P9WJL3); assay: MurE ligase inhibition, phosphate colorimetric detection method; type: biochemical
T1 sequence (P9WJL3 1-535): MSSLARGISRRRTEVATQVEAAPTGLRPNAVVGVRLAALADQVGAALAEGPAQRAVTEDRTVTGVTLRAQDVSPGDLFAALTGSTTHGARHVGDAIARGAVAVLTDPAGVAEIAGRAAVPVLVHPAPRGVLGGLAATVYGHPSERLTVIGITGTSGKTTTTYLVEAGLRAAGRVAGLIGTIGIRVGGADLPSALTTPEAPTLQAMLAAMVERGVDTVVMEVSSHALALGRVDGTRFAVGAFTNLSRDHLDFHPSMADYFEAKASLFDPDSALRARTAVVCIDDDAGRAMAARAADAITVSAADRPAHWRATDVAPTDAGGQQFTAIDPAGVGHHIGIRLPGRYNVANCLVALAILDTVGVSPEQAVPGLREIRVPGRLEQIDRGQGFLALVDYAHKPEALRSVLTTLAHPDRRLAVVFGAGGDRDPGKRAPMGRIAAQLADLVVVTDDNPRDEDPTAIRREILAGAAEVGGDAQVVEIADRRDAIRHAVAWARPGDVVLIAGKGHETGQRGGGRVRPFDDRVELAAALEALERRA

M. tuberculosis MurE [2] = target: T1, M. tuberculosis MurE; assay: MurE ligase inhibition, HPLC quantification of UDP-MurNAc-tripeptide; type: biochemical
RAW264.7 macrophages = settings: RAW264.7, 48 h, ±SD
EMRSA-15 = assay: Microdilution MIC assay in Mueller–Hinton broth; type: cell-based; settings: Staphylococcus aureus, read-out: MIC S. aureus EMRSA-15
EMRSA-16 = assay: Microdilution MIC assay in Mueller–Hinton broth; type: cell-based; settings: Staphylococcus aureus, read-out: MIC S. aureus EMRSA-16

| Structure (SMILES) | MIC (M. smegmatis mc^2155) | MIC (M. fortuitum) | MIC (M. phlei) | IC50 (M. tuberculosis MurE [1]) [µM] | IC50 (M. tuberculosis MurE [2]) [µM] | Murine macrophages GIC50 (50% growth inhibition concentration) (RAW264.7 macrophages) [mg/L] | MIC (EMRSA-15) [µg/mL] | MIC (EMRSA-16) [µg/mL] |
| --- | --- | --- | --- | --- | --- | --- | --- | --- |
| NNC(=O)c1ccncc1 [Isoniazid] | 5 µg/mL and 18.5 µM | 1 µg/mL and 3.65 µM | 4 µg/mL and 15 µM | > 1000 | > 1000 | >500 |  |  |
| CCn1cc(C(=O)O)c(=O)c2cc(F)c(N3CCNCC3)cc21 [norfloxacin] |  |  |  |  |  |  | 0.5 (≈ 1.57 µM) | 256 (≈ 802 µM) |
